The source made the active and inactive calls. Cut-off read from the data, not from the text of the source, for most assays here: actives have a measured Kd and inactives only a lower limit.
These compounds were tested against Cyclin-dependent kinase 7 (Homo sapiens, UniProt P50613).
Note: in the data inactive means no Kd found up to 30 µM.

Sequence of Cyclin-dependent kinase 7 (P50613 whole entry): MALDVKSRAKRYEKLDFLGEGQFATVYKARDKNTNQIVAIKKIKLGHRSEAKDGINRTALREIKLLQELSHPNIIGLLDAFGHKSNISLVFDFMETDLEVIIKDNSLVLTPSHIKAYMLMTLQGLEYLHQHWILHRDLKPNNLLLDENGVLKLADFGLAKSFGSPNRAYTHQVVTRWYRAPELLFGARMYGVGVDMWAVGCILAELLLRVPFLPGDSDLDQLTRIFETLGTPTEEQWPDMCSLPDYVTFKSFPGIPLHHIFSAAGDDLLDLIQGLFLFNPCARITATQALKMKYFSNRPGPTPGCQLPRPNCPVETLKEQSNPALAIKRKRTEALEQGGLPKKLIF

| Structure (SMILES) | Kd |
| --- | --- |
| CC[C@@H]1C(=O)N(C)c2cnc(Nc3ccc(C(=O)N[C@H]4CC[C@H](N5CCN(CC6CC6)CC5)CC4)cc3OC)nc2N1C(C)C [VOLASERTIB] | > 30 µM (inactive) |
| CCn1c(=O)c(-c2cc[nH]n2)cc2c(C)nc(N)nc21 [VOXTALISIB] | > 30 µM (inactive) |
| O=C(Nc1ccc(-c2ccnc(Nc3ccc(N4CCOCC4)cc3)n2)cc1)C1CCCN1 (stereo unspecified) [XL-019] | > 30 µM (inactive) |

What follows are compounds tested against T1, Serine/threonine-protein kinase D3 (Homo sapiens, UniProt O94806).
T1 sequence (O94806 whole entry): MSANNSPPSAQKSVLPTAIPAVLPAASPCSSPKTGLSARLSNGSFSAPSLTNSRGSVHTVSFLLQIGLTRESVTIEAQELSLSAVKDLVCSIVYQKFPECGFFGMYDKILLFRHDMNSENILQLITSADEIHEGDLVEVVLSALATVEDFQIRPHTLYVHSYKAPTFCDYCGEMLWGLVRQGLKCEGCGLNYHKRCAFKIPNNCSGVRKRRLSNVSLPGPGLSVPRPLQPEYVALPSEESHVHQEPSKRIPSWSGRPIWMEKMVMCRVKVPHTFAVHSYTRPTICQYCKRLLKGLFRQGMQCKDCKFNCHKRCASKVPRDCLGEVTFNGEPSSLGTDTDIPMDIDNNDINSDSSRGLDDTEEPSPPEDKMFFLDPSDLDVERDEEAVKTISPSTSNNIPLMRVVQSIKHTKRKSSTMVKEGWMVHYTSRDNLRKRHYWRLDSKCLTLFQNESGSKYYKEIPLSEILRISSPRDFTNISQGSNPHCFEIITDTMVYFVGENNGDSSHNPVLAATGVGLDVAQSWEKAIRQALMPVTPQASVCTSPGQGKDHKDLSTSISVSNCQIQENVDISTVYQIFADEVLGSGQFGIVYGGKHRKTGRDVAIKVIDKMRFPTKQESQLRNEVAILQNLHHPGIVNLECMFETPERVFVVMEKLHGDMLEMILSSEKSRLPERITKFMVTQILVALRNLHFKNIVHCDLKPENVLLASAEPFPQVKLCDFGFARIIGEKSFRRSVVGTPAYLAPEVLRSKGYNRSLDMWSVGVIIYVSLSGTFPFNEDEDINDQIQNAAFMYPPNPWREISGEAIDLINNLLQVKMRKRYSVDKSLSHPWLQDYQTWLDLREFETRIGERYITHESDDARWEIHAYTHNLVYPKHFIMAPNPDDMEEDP

| Structure (SMILES) | Kd |
| --- | --- |
| CC[C@@H]1C(=O)N(C)c2cnc(Nc3ccc(C(=O)N[C@H]4CC[C@H](N5CCN(CC6CC6)CC5)CC4)cc3OC)nc2N1C(C)C [VOLASERTIB] | > 30 µM (inactive) |
| CCn1c(=O)c(-c2cc[nH]n2)cc2c(C)nc(N)nc21 [VOXTALISIB] | > 30 µM (inactive) |
| O=C(Nc1ccc(-c2ccnc(Nc3ccc(N4CCOCC4)cc3)n2)cc1)C1CCCN1 (stereo unspecified) [XL-019] | 2.96 µM (active) |

These compounds were tested against Serine/threonine-protein kinase SIK3 (Homo sapiens, UniProt Q9Y2K2).
Sequence of Serine/threonine-protein kinase SIK3 (Q9Y2K2 whole entry): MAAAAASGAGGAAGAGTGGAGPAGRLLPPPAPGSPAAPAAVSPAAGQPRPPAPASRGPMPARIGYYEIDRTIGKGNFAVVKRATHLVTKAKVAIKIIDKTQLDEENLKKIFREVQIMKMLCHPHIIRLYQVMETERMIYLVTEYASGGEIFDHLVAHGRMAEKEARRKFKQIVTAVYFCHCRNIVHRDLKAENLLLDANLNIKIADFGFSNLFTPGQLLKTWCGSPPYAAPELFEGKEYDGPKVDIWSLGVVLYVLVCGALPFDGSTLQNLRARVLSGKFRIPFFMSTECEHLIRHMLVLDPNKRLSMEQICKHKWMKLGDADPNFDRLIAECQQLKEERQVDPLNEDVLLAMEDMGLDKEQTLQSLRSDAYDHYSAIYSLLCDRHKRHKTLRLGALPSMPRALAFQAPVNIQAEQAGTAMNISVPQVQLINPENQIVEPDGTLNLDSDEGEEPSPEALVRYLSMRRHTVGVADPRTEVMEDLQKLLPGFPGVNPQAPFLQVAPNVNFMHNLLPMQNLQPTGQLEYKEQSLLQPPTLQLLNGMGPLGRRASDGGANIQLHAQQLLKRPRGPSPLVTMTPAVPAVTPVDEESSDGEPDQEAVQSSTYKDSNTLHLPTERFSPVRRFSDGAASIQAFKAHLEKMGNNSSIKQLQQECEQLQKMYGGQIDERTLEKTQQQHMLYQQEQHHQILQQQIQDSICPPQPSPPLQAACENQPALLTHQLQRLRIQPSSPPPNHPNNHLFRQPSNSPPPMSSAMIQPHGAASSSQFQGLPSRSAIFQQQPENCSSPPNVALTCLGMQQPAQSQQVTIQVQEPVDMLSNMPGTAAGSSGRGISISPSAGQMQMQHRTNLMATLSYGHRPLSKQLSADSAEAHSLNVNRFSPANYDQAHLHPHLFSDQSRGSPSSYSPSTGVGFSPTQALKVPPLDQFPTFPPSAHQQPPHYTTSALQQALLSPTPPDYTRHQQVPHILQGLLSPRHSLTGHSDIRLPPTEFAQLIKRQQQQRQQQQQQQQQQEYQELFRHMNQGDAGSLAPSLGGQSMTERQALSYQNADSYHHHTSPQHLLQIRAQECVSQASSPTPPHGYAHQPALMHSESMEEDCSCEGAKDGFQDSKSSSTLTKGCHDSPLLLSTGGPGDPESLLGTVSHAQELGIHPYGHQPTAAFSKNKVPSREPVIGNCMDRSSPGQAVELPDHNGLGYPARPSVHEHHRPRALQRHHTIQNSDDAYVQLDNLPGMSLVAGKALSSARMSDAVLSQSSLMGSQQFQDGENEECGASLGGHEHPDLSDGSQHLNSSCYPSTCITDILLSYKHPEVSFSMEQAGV

| Structure (SMILES) | Kd |
| --- | --- |
| CC[C@@H]1C(=O)N(C)c2cnc(Nc3ccc(C(=O)N[C@H]4CC[C@H](N5CCN(CC6CC6)CC5)CC4)cc3OC)nc2N1C(C)C [VOLASERTIB] | > 30 µM (inactive) |
| CCn1c(=O)c(-c2cc[nH]n2)cc2c(C)nc(N)nc21 [VOXTALISIB] | > 30 µM (inactive) |
| O=C(Nc1ccc(-c2ccnc(Nc3ccc(N4CCOCC4)cc3)n2)cc1)C1CCCN1 (stereo unspecified) [XL-019] | 0.206 µM (active) |

The compounds below were run against T2, Calcium/calmodulin-dependent protein kinase type IV (Homo sapiens, UniProt Q16566).
T2 sequence (Q16566 whole entry): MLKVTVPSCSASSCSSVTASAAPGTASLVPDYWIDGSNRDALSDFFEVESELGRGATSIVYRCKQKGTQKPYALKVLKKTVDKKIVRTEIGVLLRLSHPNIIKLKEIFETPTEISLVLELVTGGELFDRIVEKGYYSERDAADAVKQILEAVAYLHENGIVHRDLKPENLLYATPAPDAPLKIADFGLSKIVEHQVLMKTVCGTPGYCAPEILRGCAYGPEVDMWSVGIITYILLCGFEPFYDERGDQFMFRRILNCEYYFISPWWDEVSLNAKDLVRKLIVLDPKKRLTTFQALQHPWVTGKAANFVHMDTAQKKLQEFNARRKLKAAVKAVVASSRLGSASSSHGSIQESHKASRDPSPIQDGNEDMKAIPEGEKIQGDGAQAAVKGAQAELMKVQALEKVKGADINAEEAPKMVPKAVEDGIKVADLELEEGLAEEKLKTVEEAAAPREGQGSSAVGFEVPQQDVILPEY

| Structure (SMILES) | Kd |
| --- | --- |
| CC[C@@H]1C(=O)N(C)c2cnc(Nc3ccc(C(=O)N[C@H]4CC[C@H](N5CCN(CC6CC6)CC5)CC4)cc3OC)nc2N1C(C)C [VOLASERTIB] | > 30 µM (inactive) |
| CCn1c(=O)c(-c2cc[nH]n2)cc2c(C)nc(N)nc21 [VOXTALISIB] | > 30 µM (inactive) |
| O=C(Nc1ccc(-c2ccnc(Nc3ccc(N4CCOCC4)cc3)n2)cc1)C1CCCN1 (stereo unspecified) [XL-019] | > 30 µM (inactive) |

What follows are compounds tested against Insulin receptor (Homo sapiens, UniProt P06213).

| Structure (SMILES) | Kd |
| --- | --- |
| CC[C@@H]1C(=O)N(C)c2cnc(Nc3ccc(C(=O)N[C@H]4CC[C@H](N5CCN(CC6CC6)CC5)CC4)cc3OC)nc2N1C(C)C [VOLASERTIB] | > 30 µM (inactive) |
| CCn1c(=O)c(-c2cc[nH]n2)cc2c(C)nc(N)nc21 [VOXTALISIB] | > 30 µM (inactive) |
| O=C(Nc1ccc(-c2ccnc(Nc3ccc(N4CCOCC4)cc3)n2)cc1)C1CCCN1 (stereo unspecified) [XL-019] | > 30 µM (inactive) |

The compounds below were run against Aurora kinase B (Homo sapiens, UniProt Q96GD4).
Sequence of Aurora kinase B (Q96GD4 whole entry): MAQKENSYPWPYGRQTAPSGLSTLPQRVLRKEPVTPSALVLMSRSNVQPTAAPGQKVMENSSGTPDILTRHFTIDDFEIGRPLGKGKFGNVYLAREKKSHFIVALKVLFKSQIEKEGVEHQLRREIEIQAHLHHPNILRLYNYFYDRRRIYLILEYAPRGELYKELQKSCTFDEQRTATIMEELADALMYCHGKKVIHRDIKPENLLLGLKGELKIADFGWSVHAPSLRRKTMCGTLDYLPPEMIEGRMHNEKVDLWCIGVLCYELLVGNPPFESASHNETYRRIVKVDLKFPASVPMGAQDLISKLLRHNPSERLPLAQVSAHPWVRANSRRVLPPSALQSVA

| Structure (SMILES) | Kd |
| --- | --- |
| CC[C@@H]1C(=O)N(C)c2cnc(Nc3ccc(C(=O)N[C@H]4CC[C@H](N5CCN(CC6CC6)CC5)CC4)cc3OC)nc2N1C(C)C [VOLASERTIB] | > 30 µM (inactive) |
| CCn1c(=O)c(-c2cc[nH]n2)cc2c(C)nc(N)nc21 [VOXTALISIB] | > 30 µM (inactive) |
| O=C(Nc1ccc(-c2ccnc(Nc3ccc(N4CCOCC4)cc3)n2)cc1)C1CCCN1 (stereo unspecified) [XL-019] | > 30 µM (inactive) |

What follows are compounds tested against Ribosomal protein S6 kinase alpha-1 (Homo sapiens, UniProt Q15418).

| Structure (SMILES) | Kd |
| --- | --- |
| CC[C@@H]1C(=O)N(C)c2cnc(Nc3ccc(C(=O)N[C@H]4CC[C@H](N5CCN(CC6CC6)CC5)CC4)cc3OC)nc2N1C(C)C [VOLASERTIB] | > 30 µM (inactive) |
| CCn1c(=O)c(-c2cc[nH]n2)cc2c(C)nc(N)nc21 [VOXTALISIB] | > 30 µM (inactive) |
| O=C(Nc1ccc(-c2ccnc(Nc3ccc(N4CCOCC4)cc3)n2)cc1)C1CCCN1 (stereo unspecified) [XL-019] | > 30 µM (inactive) |

What follows are compounds tested against Serine/threonine-protein kinase 10 (Homo sapiens, UniProt O94804).
Sequence of Serine/threonine-protein kinase 10 (O94804 whole entry): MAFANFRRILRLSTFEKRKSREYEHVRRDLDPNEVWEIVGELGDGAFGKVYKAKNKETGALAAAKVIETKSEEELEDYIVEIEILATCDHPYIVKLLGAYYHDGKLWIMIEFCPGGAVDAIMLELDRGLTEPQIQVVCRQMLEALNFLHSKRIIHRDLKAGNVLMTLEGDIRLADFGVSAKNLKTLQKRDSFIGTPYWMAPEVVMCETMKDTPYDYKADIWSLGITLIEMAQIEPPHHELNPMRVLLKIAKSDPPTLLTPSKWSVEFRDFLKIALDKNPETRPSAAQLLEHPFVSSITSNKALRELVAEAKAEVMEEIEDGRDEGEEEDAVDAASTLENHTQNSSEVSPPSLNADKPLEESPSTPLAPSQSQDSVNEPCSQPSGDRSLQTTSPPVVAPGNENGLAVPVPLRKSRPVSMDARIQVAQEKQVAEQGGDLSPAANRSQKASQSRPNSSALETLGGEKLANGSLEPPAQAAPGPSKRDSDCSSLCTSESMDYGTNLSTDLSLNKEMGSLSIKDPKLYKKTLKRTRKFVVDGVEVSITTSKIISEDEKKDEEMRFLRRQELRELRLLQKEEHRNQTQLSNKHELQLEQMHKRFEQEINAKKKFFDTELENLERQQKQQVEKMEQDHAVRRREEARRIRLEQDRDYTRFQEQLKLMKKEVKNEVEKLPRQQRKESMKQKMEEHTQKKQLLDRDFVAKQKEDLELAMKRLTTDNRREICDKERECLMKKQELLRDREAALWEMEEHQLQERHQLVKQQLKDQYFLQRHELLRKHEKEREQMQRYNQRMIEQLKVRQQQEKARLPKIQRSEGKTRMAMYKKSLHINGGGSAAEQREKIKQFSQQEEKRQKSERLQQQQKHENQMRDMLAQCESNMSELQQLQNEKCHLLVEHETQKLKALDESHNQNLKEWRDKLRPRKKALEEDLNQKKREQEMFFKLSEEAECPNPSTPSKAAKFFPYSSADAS

| Structure (SMILES) | Kd |
| --- | --- |
| CC[C@@H]1C(=O)N(C)c2cnc(Nc3ccc(C(=O)N[C@H]4CC[C@H](N5CCN(CC6CC6)CC5)CC4)cc3OC)nc2N1C(C)C [VOLASERTIB] | > 30 µM (inactive) |
| CCn1c(=O)c(-c2cc[nH]n2)cc2c(C)nc(N)nc21 [VOXTALISIB] | > 30 µM (inactive) |
| O=C(Nc1ccc(-c2ccnc(Nc3ccc(N4CCOCC4)cc3)n2)cc1)C1CCCN1 (stereo unspecified) [XL-019] | > 30 µM (inactive) |

The compounds below were run against Cyclin-dependent kinase 5 (Homo sapiens, UniProt Q00535).
Sequence of Cyclin-dependent kinase 5 (Q00535 whole entry): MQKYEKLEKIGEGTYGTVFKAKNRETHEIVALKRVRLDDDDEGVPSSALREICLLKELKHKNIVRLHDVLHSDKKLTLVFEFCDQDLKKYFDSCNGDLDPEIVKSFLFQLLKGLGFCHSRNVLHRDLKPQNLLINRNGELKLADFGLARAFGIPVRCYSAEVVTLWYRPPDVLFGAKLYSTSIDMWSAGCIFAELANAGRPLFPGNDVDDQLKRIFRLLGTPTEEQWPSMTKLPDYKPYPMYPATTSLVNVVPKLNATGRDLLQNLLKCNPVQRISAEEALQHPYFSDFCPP

| Structure (SMILES) | Kd |
| --- | --- |
| CC[C@@H]1C(=O)N(C)c2cnc(Nc3ccc(C(=O)N[C@H]4CC[C@H](N5CCN(CC6CC6)CC5)CC4)cc3OC)nc2N1C(C)C [VOLASERTIB] | > 30 µM (inactive) |
| CCn1c(=O)c(-c2cc[nH]n2)cc2c(C)nc(N)nc21 [VOXTALISIB] | > 30 µM (inactive) |
| O=C(Nc1ccc(-c2ccnc(Nc3ccc(N4CCOCC4)cc3)n2)cc1)C1CCCN1 (stereo unspecified) [XL-019] | > 30 µM (inactive) |

These compounds were tested against T3, Membrane-associated tyrosine- and threonine-specific cdc2-inhibitory kinase (Homo sapiens, UniProt Q99640).
T3 sequence (Q99640 whole entry): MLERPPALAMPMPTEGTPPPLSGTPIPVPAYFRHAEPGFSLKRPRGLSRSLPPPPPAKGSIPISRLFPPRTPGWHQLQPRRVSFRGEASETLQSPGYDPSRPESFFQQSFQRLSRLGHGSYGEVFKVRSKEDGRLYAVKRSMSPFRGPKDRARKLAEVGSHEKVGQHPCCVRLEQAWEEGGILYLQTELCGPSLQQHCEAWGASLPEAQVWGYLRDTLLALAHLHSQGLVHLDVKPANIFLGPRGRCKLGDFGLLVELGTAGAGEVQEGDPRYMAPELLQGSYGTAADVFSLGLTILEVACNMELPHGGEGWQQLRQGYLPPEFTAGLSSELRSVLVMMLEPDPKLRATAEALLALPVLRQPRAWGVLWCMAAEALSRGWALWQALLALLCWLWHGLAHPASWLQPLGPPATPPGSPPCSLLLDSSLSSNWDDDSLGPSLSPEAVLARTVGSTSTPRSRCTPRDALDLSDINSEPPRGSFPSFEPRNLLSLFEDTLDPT

| Structure (SMILES) | Kd |
| --- | --- |
| CC[C@@H]1C(=O)N(C)c2cnc(Nc3ccc(C(=O)N[C@H]4CC[C@H](N5CCN(CC6CC6)CC5)CC4)cc3OC)nc2N1C(C)C [VOLASERTIB] | > 30 µM (inactive) |
| CCn1c(=O)c(-c2cc[nH]n2)cc2c(C)nc(N)nc21 [VOXTALISIB] | > 30 µM (inactive) |
| O=C(Nc1ccc(-c2ccnc(Nc3ccc(N4CCOCC4)cc3)n2)cc1)C1CCCN1 (stereo unspecified) [XL-019] | > 30 µM (inactive) |

What follows are compounds tested against DNA topoisomerase 2-alpha (Homo sapiens, UniProt P11388).
Sequence of DNA topoisomerase 2-alpha (P11388 whole entry): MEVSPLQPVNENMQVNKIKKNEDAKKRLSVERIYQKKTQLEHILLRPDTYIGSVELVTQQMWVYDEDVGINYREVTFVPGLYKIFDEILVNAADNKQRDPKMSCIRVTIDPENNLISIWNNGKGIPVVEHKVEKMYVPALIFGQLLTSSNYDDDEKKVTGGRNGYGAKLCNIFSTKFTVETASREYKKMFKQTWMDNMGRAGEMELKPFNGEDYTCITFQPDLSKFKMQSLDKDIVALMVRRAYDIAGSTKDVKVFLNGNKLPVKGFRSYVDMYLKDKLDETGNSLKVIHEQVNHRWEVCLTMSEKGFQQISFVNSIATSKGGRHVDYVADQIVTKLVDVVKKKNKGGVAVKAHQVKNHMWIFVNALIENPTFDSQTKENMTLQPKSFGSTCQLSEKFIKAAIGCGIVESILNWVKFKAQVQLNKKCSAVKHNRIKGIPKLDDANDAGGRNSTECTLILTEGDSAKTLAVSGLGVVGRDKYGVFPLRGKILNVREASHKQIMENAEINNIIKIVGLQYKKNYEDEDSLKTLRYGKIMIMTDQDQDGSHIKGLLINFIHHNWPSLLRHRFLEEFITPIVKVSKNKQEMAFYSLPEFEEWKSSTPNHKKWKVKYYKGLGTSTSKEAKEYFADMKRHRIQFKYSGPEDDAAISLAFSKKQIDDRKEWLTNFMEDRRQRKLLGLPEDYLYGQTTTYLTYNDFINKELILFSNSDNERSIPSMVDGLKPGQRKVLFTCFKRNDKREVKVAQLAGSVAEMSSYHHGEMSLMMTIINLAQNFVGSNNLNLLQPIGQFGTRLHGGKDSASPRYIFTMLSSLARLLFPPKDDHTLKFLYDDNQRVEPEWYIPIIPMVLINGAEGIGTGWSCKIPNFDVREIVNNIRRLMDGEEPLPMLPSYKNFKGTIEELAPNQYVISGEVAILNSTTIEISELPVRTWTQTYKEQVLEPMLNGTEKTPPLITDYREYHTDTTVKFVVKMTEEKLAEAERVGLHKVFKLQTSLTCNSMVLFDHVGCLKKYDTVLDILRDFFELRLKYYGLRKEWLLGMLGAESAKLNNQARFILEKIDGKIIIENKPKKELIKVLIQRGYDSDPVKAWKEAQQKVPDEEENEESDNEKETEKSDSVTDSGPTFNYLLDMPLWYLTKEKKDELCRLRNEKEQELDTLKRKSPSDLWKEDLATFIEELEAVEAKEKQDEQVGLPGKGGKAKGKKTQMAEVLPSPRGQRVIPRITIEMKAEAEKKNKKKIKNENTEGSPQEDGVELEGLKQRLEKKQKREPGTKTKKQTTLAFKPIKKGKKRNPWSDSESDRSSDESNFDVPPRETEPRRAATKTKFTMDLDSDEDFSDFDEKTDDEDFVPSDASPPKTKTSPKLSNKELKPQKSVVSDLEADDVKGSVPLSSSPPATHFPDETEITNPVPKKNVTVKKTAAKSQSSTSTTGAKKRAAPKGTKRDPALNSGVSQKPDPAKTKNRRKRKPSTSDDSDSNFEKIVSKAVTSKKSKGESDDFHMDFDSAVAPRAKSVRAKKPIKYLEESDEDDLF

| Structure (SMILES) | Kd |
| --- | --- |
| CC[C@@H]1C(=O)N(C)c2cnc(Nc3ccc(C(=O)N[C@H]4CC[C@H](N5CCN(CC6CC6)CC5)CC4)cc3OC)nc2N1C(C)C [VOLASERTIB] | > 30 µM (inactive) |
| CCn1c(=O)c(-c2cc[nH]n2)cc2c(C)nc(N)nc21 [VOXTALISIB] | > 30 µM (inactive) |
| O=C(Nc1ccc(-c2ccnc(Nc3ccc(N4CCOCC4)cc3)n2)cc1)C1CCCN1 (stereo unspecified) [XL-019] | > 30 µM (inactive) |

Each compound was assayed against T4, Very long-chain specific acyl-CoA dehydrogenase, mitochondrial (Homo sapiens, UniProt P49748).
T4 sequence (P49748 whole entry): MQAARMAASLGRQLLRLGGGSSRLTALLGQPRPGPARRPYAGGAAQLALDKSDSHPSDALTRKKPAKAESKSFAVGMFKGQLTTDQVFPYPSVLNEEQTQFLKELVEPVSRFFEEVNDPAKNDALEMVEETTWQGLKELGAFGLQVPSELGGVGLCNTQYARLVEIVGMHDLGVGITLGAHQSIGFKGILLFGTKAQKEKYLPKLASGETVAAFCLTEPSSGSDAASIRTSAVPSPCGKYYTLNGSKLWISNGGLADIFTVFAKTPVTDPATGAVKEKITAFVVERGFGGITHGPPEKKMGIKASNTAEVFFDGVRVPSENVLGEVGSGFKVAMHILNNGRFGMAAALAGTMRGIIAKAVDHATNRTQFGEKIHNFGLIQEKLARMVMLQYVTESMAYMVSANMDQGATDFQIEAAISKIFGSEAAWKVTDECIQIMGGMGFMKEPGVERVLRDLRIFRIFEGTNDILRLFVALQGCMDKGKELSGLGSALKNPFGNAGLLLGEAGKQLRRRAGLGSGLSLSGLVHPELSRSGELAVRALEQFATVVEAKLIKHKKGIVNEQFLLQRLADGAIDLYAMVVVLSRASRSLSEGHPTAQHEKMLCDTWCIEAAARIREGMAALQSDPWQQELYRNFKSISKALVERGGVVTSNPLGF

| Structure (SMILES) | Kd |
| --- | --- |
| CC[C@@H]1C(=O)N(C)c2cnc(Nc3ccc(C(=O)N[C@H]4CC[C@H](N5CCN(CC6CC6)CC5)CC4)cc3OC)nc2N1C(C)C [VOLASERTIB] | > 30 µM (inactive) |
| CCn1c(=O)c(-c2cc[nH]n2)cc2c(C)nc(N)nc21 [VOXTALISIB] | > 30 µM (inactive) |
| O=C(Nc1ccc(-c2ccnc(Nc3ccc(N4CCOCC4)cc3)n2)cc1)C1CCCN1 (stereo unspecified) [XL-019] | > 30 µM (inactive) |
